Measured values as given in patent publication US9340577B2, “HLA binding motifs and peptides and their uses” (priority 1992, dated 2016).
No end group written: not given here.

Key:
Assay in all cases: biochemical
DR1 (DRB1*0101) = DR1 (DRB1*0101) (Homo sapiens, UniProt P01903+P01911, A100R/D57E/F55L/F60I/F76Y/I96L/L162R/M171V/P40L/Q125E/R42F/V115G/Y59C); type: binding
DR4w4 (DRB1*0401) = DR4w4 (DRB1*0401) (Homo sapiens, UniProt P01903+P01911, A100K/A169T/F76Y/I96L/K127E/L162R/M171V/N62H/P40V/Q125Y/R42H/S133A/S149N/S66Y/V115G/V209L/W38E); type: binding
DRB1*0301 = DRB1*0301 (Homo sapiens, UniProt P01903+P01911, A100K/A102G/A103R/A169T/F55Y/I96L/K41T/L162R/M171V/P40S/Q125H/Q178H/Q39Y/R42S/S66N/T106N/T262R/W38E/Y61H); type: binding
DRB1*0405 = DRB1*0405 (Homo sapiens, UniProt P01903+P01911, A100R/A169T/D86S/F76Y/I96L/K127E/L162R/M171V/N62H/P40V/Q125Y/R42H/S133A/S149N/S66Y/V115G/V209L/W38E); type: binding
DRB1*0901 = DRB1*0901 (Homo sapiens, UniProt P01903+P01911, A100R/A103E/D57H/D86V/F55Y/F60I/F76Y/I96F/K127E/L162R/M171V/P40D/Q125H/Q99R/R33Q/R42F/S133A/S66N/T210M/V115G/W38K/Y107V/Y59G/Y89S); type: binding
DRB1*1201 = DRB1*1201 (Homo sapiens, UniProt P01903+P01911, A100R/A169T/D57E/D86V/F55L/H45Y/K41T/L162R/M171V/P40S/Q125H/Q178H/Q39Y/Q99D/R42G/S66L/T262R/V114A/V67L/W38E/Y59H/Y61H/Y89S); type: binding
DRB1*1302 = DRB1*1302 (Homo sapiens, UniProt P01903+P01911, A100E/A169T/K41T/L162R/M171V/P40S/Q125H/Q178H/Q39Y/Q99D/R42S/S66N/T262R/V115G/W38E/Y61H); type: binding
DRB4*0101 = DRB4*0101 (Homo sapiens, UniProt P01903+P13762, G164S); type: binding
DRB1*1101 = DRB1*1101 (Homo sapiens, UniProt P01903+P01911, A100R/A169T/A87E/I96F/K41T/L162R/M171V/P40S/Q125H/Q178H/Q39Y/Q99D/R42S/S66Y/T262R/V115G/W38E); details: Binding affinity DRB1 *1101
DRB5*0101 = DRB5*0101 (Homo sapiens, UniProt P01903+Q30154); details: Binding affinity DRB5 *0101
DRB1*0802 = DRB1*0802 (Homo sapiens, UniProt P01903+P01911, A100R/A103L/A169T/F76Y/H45Y/I96F/K41T/L162R/M171V/P40S/Q125H/Q178H/Q39Y/Q99D/R218S/R42G/S66Y/V115G/W38E); type: binding
DRB1*1501 = DRB1*1501 (Homo sapiens, UniProt P01903+P01911); type: binding
DR7 (DRB1*0701) = DR7 (DRB1*0701) (Homo sapiens, UniProt P01903+P01911, A100R/A102G/A103Q/D57E/D86V/E43K/F76Y/K127E/L162R/M171V/P40G/Q125H/Q99D/R33Q/R42Y/R54Q/S133A/S66F/T210M/V115G/Y107V/Y59L/Y89S); type: binding

Chain of DRB1*1302 (P01903 26-254 limits assumed, other chains not shown): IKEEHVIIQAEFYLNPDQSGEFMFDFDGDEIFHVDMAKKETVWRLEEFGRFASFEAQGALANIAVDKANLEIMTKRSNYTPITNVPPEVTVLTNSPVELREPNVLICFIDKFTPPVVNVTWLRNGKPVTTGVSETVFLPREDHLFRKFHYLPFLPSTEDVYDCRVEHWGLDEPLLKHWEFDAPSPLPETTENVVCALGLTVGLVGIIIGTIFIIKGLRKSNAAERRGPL
Chain of DRB1*0301 (P01903 26-254 limits assumed, other chains not shown): as above
Chain of DRB1*1101 (P01903 26-254 limits assumed, other chains not shown): as above

Compound | IC50 (DR1 (DRB1*0101)) [nM] | IC50 (DR4w4 (DRB1*0401)) [nM] | IC50 (DRB1*0301) [nM] | IC50 (DRB1*0405) [nM] | IC50 (DRB1*0901) [nM] | IC50 (DRB1*1201) [nM] | IC50 (DRB1*1302) [nM] | IC50 (DRB4*0101) [nM] | IC50 (DRB1*1101) [nM] | IC50 (DRB5*0101) [nM] | IC50 (DRB1*0802) [nM] | IC50 (DRB1*1501) [nM] | IC50 (DR7 (DRB1*0701)) [nM]
CC[C@H](C)[C@H](NC(=O)[C@H](Cc1c[nH]cn1)NC(=O)[C@H](C)NC(=O)[C@H](Cc1ccc(O)cc1)NC(=O)[C@H](CC(C)C)NC(=O)[C@@H](NC(=O)[C@H](C)NC(=O)[C@@H]1CCCN1C(=O)[C@H](CCCCN)NC(=O)[C@@H](NC(=O)[C@H](CC(C)C)NC(=O)[C@@H](NC(=O)[C@H](CCCCN)NC(=O)[C@@H](N)Cc1ccccc1)[C@@H](C)O)[C@@H](C)CC)[C@@H](C)O)C(=O)N[C@@H](CCC(N)=O)C(=O)O [Peptide 89.0082] | 23 | 123 | 825 | 14 | 570 | 84 | 45 | 20 | 5.5 | 2430 |  |  | 
AFQVIELQMALETLN [Peptide 90.0024] | 29 |  | 1280 | 2100 |  | 466 | 89 | 11 | 3340 | > 20000 | 4950 | 378 | 
AKALQAIELQMMLET [Peptide 89.0171] | 16 | 78 | 1460 | 798 | 84 | 243 |  | 2550 | 2400 | 284 | > 20000 | 8480 | 51
ETCMLIEPPKLRSSV [Peptide 89.0084] | 35 |  | 359 | 906 | 5120 | 708 | 481 | 48 | 123 |  | 1350 |  | 756
GERLEVDTELSPRLQ [Peptide 90.0048] | > 20000 |  | 15 | > 20000 | > 20000 | > 20000 | > 20000 | > 20000 | > 20000 | > 20000 | > 20000 | > 20000 | > 20000
GKSYFGMSLIQFLKG [Peptide 89.0075] | 14 | 456 | 8830 | 1310 | 73 | 499 |  | 372 | 2960 | 411 | 1560 |  | 
HKAIELQMALKGLAQ [Peptide 90.0004] | 2.1 | 6.7 | 32 | 3310 |  | 293 |  | 1 | 10 | 57 | 38 | 6580 | 
IIHLKGDANILKCLR [Peptide 90.0197] | 69 | 64 | 26 | 6500 | 14100 | 5030 | 66 | 713 |  | 2460 | 2990 |  | 3050
KNRLTVAKLMSNLLS [Peptide 89.0064] | 5.6 | 21 | 9720 | 12 | 2680 | 89 | 14 | 25 | 1580 |  | 580 |  | 2.8
LKAICIEKQSRAAKR [Peptide 90.0032] | 259 | 307 | 21 | > 20000 | 13400 | 11800 |  | 29 | 545 |  | 273 | 2060 | 
LLEFIDDSMENSIQA [Peptide 90.0077] | 500 |  | 518 | 534 | 6680 | > 20000 | > 20000 | 734 | 7620 | > 20000 | > 20000 | 6120 | > 20000
LNTVKIPNTVSVSTG [Peptide 89.0178] | 51 | 824 | 65 | 3020 | 1140 | 361 |  | 2580 | 976 |  | 3690 | 12700 | 5480
MLAVFKDTYGLSFTD [Peptide 90.0050] |  | 829 | 45 | > 20000 | 1570 | 7430 | 1240 | > 20000 | 2290 | 18300 | 7940 |  | 
PEWIQRLTIIQHGID [Peptide 89.0031] | 879 |  | 4380 | 131 | 4510 | 527 | 558 | 3.3 | 596 | 240 | 187 | 3420 | 
QMFLGTVKIPPTVQI [Peptide 89.0188] |  |  | 160 | 616 | > 20000 | 553 |  | 13 | 474 | 4490 | 503 | 208 | 4650
TGWFEVEAVIERRTG [Peptide 90.0075] | 17100 |  | 17 | 6110 | > 20000 | > 20000 | > 20000 | > 20000 |  | 362 |  | > 20000 | 4930
VDFIVNDNDYLTQAE [Peptide 90.0031] | 2830 |  | 42 | > 20000 | > 20000 | 17100 | 204 | 718 | > 20000 | > 20000 | > 20000 | > 20000 | 7280
VTVFTFPHAFPFDKN [Peptide 89.0092] |  |  | > 20000 | 10200 | 33 | 131 | > 20000 | 1500 |  | 226 |  | 63 | 5.5
WKLIRMECAIMYTAR [Peptide 90.0245] |  | 328 | 203 | 768 | 4870 | 195 |  | 27 |  | 1240 | 9170 | 2110 | 4610
WQLIRLENAILFTAR [Peptide 90.0211] | 4.1 |  | 41 | 308 | 2270 | 99 | 2.7 | 20 |  | 445 | 1840 | 44 | 89
